These results are taken from US10188633B2, “Identification of small molecules that facilitate therapeutic exon skipping” (The Regents of the University of California, priority 2011, dated 2019).

Data set [1] relates to human DMD exon 50 GFP based reporter. The data set can be described thus: Secondary screening, 12 or 16 point titrations on the DMD exon 50 reporter cell line with or without AON6. It is filed as cell-based, mouse. As to the method: 12 or 16 point titrations of compounds were added to the Ex50-GFP and C2C12 myoblasts either with or without AON6.
A stable clone was generated from C2C12 cells transfected with a human exon 50 DMD GFP reporter (ex50GFP) that has been previously described. Ex50GFP reporter myoblasts were seeded into uncoated 384 well plates and were incubated for 4 hours either with or without 300 nM of 2′-O-methyl phosphorothioate AON6 [5′[…] 3′ (SEQ ID NO:1)] targeting the human exon 50 splice donor site. Cells were transfected with AON6 using the FUGENE (Roche) transfection reagent per manufacturer's instructions. Following AON6 incubation, each component of the BioMol library (n=503) was screened at 10 uM concentration with a final concentration of the DMSO carrier being 1%. Forty-eight hours later fluorescence was measured using the MicroXpress high content imager and analyzed using MetaXpress. Immediately preceding imaging, DNA was stained with Hoescht for 30 min. The BioMol screen without AO (−AO) was performed in 6 replicates, and the with AO (+AO) screen was performed in 3 replicates. For the screen analysis raw fluorescence values were normalized to carrier controls present on each plate by subtracting the values. Negative fluorescence values were set to 0. The data from each compound were averaged from all replicates. For secondary screening by 12 or 16 point dose response, Ex50GFP myoblasts or C2C12 cells without the reporter were seeded on uncoated 384 well plates. A sub-optimal dose of AON6 targeting DMD exon 50 was added for 4 hours. Following the 4 hour incubation, a compound dilution was added (beginning at 100 uM with 1:1 dilutions) for either 12 or 16 points. After a 48 hour incubation with compounds, DNA was stained with Hoescht, and fluorescence determined using the high content imager and analyzed with MetaXpress.

The subject of a further data set is DMD exon 51. The data set can be described thus: DMD exon 51 skipping in reprogrammed DMD patient fibroblasts fused to myotubes (GM05017, iDRM05017) with exon 51 AO. The format is cell-based, human. As to the method:
(§1) (A) Differentiated primary mouse myotubes were transfected either with 100 nM 2′-O-methyl M23D, which targets exon 23 splice donor region or mock transfected for 24 hours after which the transfection reagent was removed, and myotubes were treated with different concentrations of Dantrolene for 48 hours. Nested RT-PCR was performed on cDNA between exons 20-26, as previously described. The 901 bp band is the full-length mRNA product, the 688 bp mRNA product is a single skip of exon 23, and the 550 bp mRNA product is a double skip of exons 22 and 23. (B) Mouse Dmd exon 23-skipped transcript levels were quantified using a taqman assay with primer-probe sets spanning the splice junction created by an exon 23 skip (22-24 join) relative to primers amplifying the splice junction of exons 22 and 23 (representing the full length mRNA), as previously described. […] Error bars represent standard deviation of qRT-PCR triplicates. (C) Patient derived fibroblasts with exon 45-50 deletion (confirmed by microarray, see FIG. 6) were immortalized with lentiviral hTERT and transduced with inducible lentiviral MyoD [26]. Cells were grown to confluence, induced for MyoD activity, and fused for 10 days in low serum differentiation media. On Day 7, h51AON [5′ […] 3′] (SEQ ID NO:2) (same sequence as Pro051) within human exon 51 was added at concentrations indicated. Twenty-four hours later Dantrolene or vehicle was added. Cells were harvested 2 days later and total RNA isolated. RT-PCR amplified a fragment of cDNA from exons 42-53 which was followed by a nested PCR to generate a fragment spanning exons 43-52. The 540 bp product is the full length DMD mRNA species and the 307 bp product indicates the exon 51 skip isoform. Quantitation was performed using the Agilent Bioanalyzer and represented as the skip/full-length mRNA ratio.
Patient fibroblasts with a DMD exon 45-50 deletion were immortalized and transduced with a lenti-viral vector expressing inducible MyoD to create iDRMs (inducibly directly reprogrammable myotubes, specifically iDRM05017s). iDRM05017s were induced for MyoD activity and then cultured for 10 days in fusion media. On Day 7, AO was added for twenty-four hours then removed and Piperacetazine, Trifluoperazine Dihydrochloride, Fluphenazine Dihydrochloride or vehicle (Dimethyl sulfoxide; DMSO) were added in fresh media. After two days total RNA was harvested, cDNA reverse transcribed with a DMD specific primer in exon 54, and exon 51 skipping was detected by nested RT-PCR spanning exons 43-52. Quantitation of exon 51 skipping was performed using the Agilent Bioanalyzer and is represented as the proportion of exon 51 skipping. Error bars represent the standard deviation (SD) of 3 independent wells.
Patient fibroblasts were transduced with HTERT and an inducible MyoD vector [26]. […] Exon 51 skipping activity was assessed in the context of transfecting an exon 51 2′-O-methyl AO with equivalent sequence to Pro051 seven days after fusion. This AO is directed at an exonic splicing enhancer (ESE) sequence within exon 51. The AO was removed prior to addition of dantrolene and cultures were harvested two days later. A nested RT-PCR was performed between DMD exons 43-52 and levels of exon 51 skipping were determined by quantitating capillary electrophoresis separated fragments representing skipped and unskipped DMD mRNA.

Data set [2] concerns mdx mice. The data set can be described thus: Systemic (intravenous) PMOE23 with intraperitoneal dantrolene in mdx mice, exon 23 skipping and dystrophin in multiple muscles. It is filed as in vivo, mouse.
Method: A systemic dose of 100 mg/kg or sub-optimal 10 mg/kg of morpholino M23D (+07-18) was administered by tail vein injection on Day 1. From Day 2-7 Dantrolene was administered intraperitoneally at a dose of 10 mg/kg/day in two divided doses. On Day 8 multiple muscles were harvested for analysis. (A) DMD exon 23 skipping was assessed as in FIG. 3. Skip/full-length mRNA ratio data were combined for all mice and for all initial muscle groups tested (quadricep, gastrocnemius, tibialis anterior and diaphragm). (B) Dystrophin protein was assessed by Western blot (Mandys8) quantitative densitometry for all muscle groups and individual mice (quadricep, gastrocnemius, tibialis anterior and diaphragm). (C) Quantitative immunohistochemistry is plotted as arbitrary units normalized to surface area for each section for all muscle groups and mice using one whole muscle cross section per animal per muscle. […] (E) Immunostaining of serial sections of treated mdx quadricep detects sarcolemmal localization of dystrophin (MANDYS8), alpha-sarcoglycan (NCL-a-sarc) and beta-dystroglycan (NCL-b-DG). […] Error bars in A-C represent the standard deviation among mice and muscles in each group (n=3 animals or n=12 total observations in saline+dantrolene and 100 mg/kg AO+DMSO; n=4 animals or n=16 observations in 10 mg/kg AO with Dantrolene or DMSO).
This enabled us to assess whether dantrolene in combination with systemic morpholino PMOE23 could enhance Dmd exon 23 skipping and induce dystrophin protein expression in multiple skeletal muscles. A single intravenous dose of 100 mg/kg PMOE23 was used as a positive control. A single intravenous dose of 10 mg/kg AO was used as a sub-optimal dose alone or in combination with twice daily dosing of 10 mg/kg/day of dantrolene intraperitoneally for the subsequent 6 days [7, 27] (n=3 in control groups and n=4 in experimental groups; Table 5).
Multiple skeletal muscles were harvested for analysis on day 7 including the quadriceps, gastrocnemius, tibialis anterior, diaphragm, triceps and heart. Muscles were assessed for: 1) increased amounts of skipped Dmd exon 23 mRNA species 2) Dystrophin protein rescue by Western blot 3) Dystrophin protein expression by quantitative immunostain, 4) appropriate subcellular localization, and 5) restoration of other components of the dystroglycan complex to the sarcolemmal membrane. To determine if dantrolene enhanced Dmd exon 23 skipping, the quantitative taqman assay was performed on RNA from each skeletal muscle.
RNA was isolated from snap frozen skeletal muscle using the QIAGEN RNAeasy Fibrous Tissue Kit.
The subject of another data set is exon skipping. The data set can be described thus: Counter screens, 16 point titrations and mdx mouse myotubes (validation of lead hits). The format is cell-based. The source says:
The cell line, which was adapted to allow the screening of thousands of compounds in multiple replicates, was obtained from Dr. Qi Lu. […]
Background: A counterscreen serves to expose hits that act by an unwanted route or on another target.

In data set [3] the test system is mdx mice. Description: Intramuscular PMOE23 with systemic dantrolene in mdx mice, dystrophin in tibialis anterior. The format is in vivo, mouse.
Method: One dose of either 10 ug or 2 ug of morpholino M23D in 25 ul PBS was injected into the tibialis anterior (TA) of 6 week old mdx mice on day 1 (n=3 per group). Dantrolene was administered by intraperitoneal injection at either 10 or 20 mg/kg/day for 9 days in a volume of 200 ul every 12 hours. Dantrolene was solubilized in 20% DMSO in normal saline. TA muscle was harvested on Day 11 and immediately frozen in Optimal Cutting Temperature compound (O.C.T.) embedding medium. Serial sections along the TA with intervals 800 microns apart were processed to perform assessments within the TA region with maximal AO delivery. […] (A) For Western blot analysis, half of each of the 4 middle intervals were pooled. Dystrophin protein was detected using MANDYS8 (exons 31 and 32) antibody. Control C57 was loaded at 5 ug/well, and 50 ug/well was loaded for other mdx samples. (B) Western blot was quantified by densitometry and plotted as arbitrary densitometry units normalized to vinculin loading control. […] (D) Data from whole muscle cross sections from C were quantified as total fluorescence, without inclusion of edges with artifactual staining, normalized to surface area scanned. […] Images were analyzed using Ariol SL-50 (Applied Imaging Corp., San Jose, Calif.). […]
Total fluorescence was quantitated from TA sections by scanning four entire cross sections from each of the mice for each experimental group.
For the next data set, the system named is DMD patients. The conditions noted are these: oral, after 2 years of daily treatment; cited from earlier work.
Data set [4] relates to mdx mice. Conditions: mouse, in vivo; cited from earlier work.
In a further data set the test system is Dmd exon 23. Description: Dmd exon 23 skipping in primary mouse myotubes with 2'-O-methyl AO M23D (RT-PCR, taqman). It is filed as cell-based. As to the method:
as §1

Setting [5] is: 10 mg/kg PMOE23 IV with dantrolene 10 mg/kg/day IP.

Take `O=C1CN(/N=C/c2ccc(-c3ccc([N+](=O)[O-])cc3)o2)C(=O)N1` [DANTROLENE]: the “increase in fluorescence in the Ex50-GFP+AO compared to the reporter line without AO” value in data set [1] (12 or 16 point titrations from 100 uM, positivity criterion (FIG. 5 legend: >10%)) is recorded as 10%. Besides, the “dose response in Ex50-GFP reporter” value in data set [1] (12 or 16 point titrations with AON6) is “evidence of a dose response”. The “AO directed DMD exon 51 skipping” value in the data set on DMD exon 51 (compound added 24 h after AO for two days, nested RT-PCR exons 43-52) is reported as “enhance AO directed DMD exon 51 skipping”. Moreover, the “enhancement of exon 51 skipping versus vehicle control” value in the data set on DMD exon 51 (with suboptimal dose of exon 51 AO, skip/full-length mRNA ratio, Bioanalyzer) was “up to 8 fold”. Moreover, in the data set on mdx mice [2] (setting [5]), the “Dmd exon 23 mRNA skipping, aggregate analysis of all skeletal muscle groups (excluding heart)” value was “significantly increased”; the “Dmd exon 23 skipping in the gastrocnemius, TA, diaphragm and quadriceps” value is reported as “enhanced skipping”; the “Dmd exon 23 skipping in the triceps” value was “Enhancement was not apparent”. Moreover, the “Dmd exon 23 skipping in heart muscle” value in the data set on mdx mice [2] (any experimental condition) is given as “No appreciable skipping”. Moreover, the “mean fold increase in dystrophin protein expression, PMOE23 with dantrolene relative to PMOE23 with vehicle” value in the data set with mdx mice [2] (pooled Western blot densitometry across quadricep, gastrocnemius, TA and diaphragm) came to 3.1 fold. Moreover, the “efficacy in counter screen and on mdx mouse myotubes” value with exon skipping was “showing efficacy in counter screen and on mdx mouse myotubes”. In the data set on mdx mice [3] (dantrolene 10 or 20 mg/kg/day IP with 2 ug PMOE23 IM), the “induced levels of dystrophin (Western blot)” value was “about 20 % of C57 dystrophin levels”. Further, in the data set on mdx mice [3] (dantrolene IP, immunofluorescence and Western blot), the “dystrophin protein rescue with and without PMOE23” value is reported as “only rescued protein expression in the presence of PMOE23”. Moreover, in the data set on DMD patients, the creatine kinase levels entry is “slightly reduced”, the manual muscle test entry is reported as “modest improvement” and the side effects entry is reported as “without substantial harmful side effects”. Moreover, the CK values entry in the data set on mdx mice [4] is recorded as “lower CK values”. Moreover, the “amount of exon 23 skipped product (RT-PCR exons 20-26)” value with Dmd exon 23 (25 and 50 uM dantrolene after 100 nM M23D) is recorded as “increased the amount of exon 23 skipped product”. The “exon 23 skipping in the absence of AO” value in the data set with Dmd exon 23 (no AO) is on record as “failed to cause exon 23 skipping”. Further, the “increase of Dmd exon 23 skipping (skip/full length mRNA, taqman) versus AO alone” value with Dmd exon 23 (with suboptimal 100 nM AO M23D, mouse myotubes) was 3 fold.
